Reference: patent US4889941A, “Synthetic flavonoids as inhibitors of leukotrienes and 5-lipoxygenase” (Fisons Corporation, priority 1987, dated 1989)
Where a name gives a salt, the structure may show the parent alone.

How the values were obtained:
[1] = test system: edema in a rat anaphylaxis test; test: Rat anaphylaxis test (paw edema after bovine serum albumin challenge); assay type: in vivo; settings: for activity in the rat anaphylaxis test: administered as a suspension
Procedure: Groups of 15-20 rats are intraperitoneally sensitized with 500 μg of bovine serum albumin-absorbed alum admixed with 2×10^10 killed Bordetella pertussis vaccine organisms. Fourteen days later, the paw volume is measured using a mercury plethysmometer. Immediately thereafter, the test compound suspended in about 1 ml of 1% Clearjel ("Instant Clearjel", a food grade pregelatinized starch from National Starch and Chemical Corporation, New York, N.Y.) at 100 mg/kg is administered ip and, one hour later, the right hind paw is injected subcutaneously with 100 μg of bovine serum albumin dissolved in 0.1 ml of saline. (In controls, no test compound is suspended in the Clearjel.) The paw volume is remeasured 90 minutes post antigenic challenge to determine the volume increase (Δ V) since the first measurement. The percent inhibition of edema is [formula] The effect of theophylline (90 mg/kg, po) is tested as a positive control.

[2] = Solubility in the balanced salts solution of the tissue bath; assay type: physicochemical; settings: balanced salts solution of the LTC4 ilial assay
leukotriene C4 (LTC4) = test: Inhibition of LTC4-induced guinea pig ilial contractions; assay type: cell-based; settings: Cavia porcellus, LTC4 6 nanomolar, read-out: percent inhibition of LTC4-induced contraction
Procedure: Test for Inhibition of LTC4 -Induced Guinea Pig Ilial Contractions
The evaluation of potential anti-allergic compounds for antagonism of the in vitro effects of leukotriene C4 (LTC4) is conducted according to the following procedure. Guinea pig ilial strips are obtained from recently killed animals and hung in isolated tissue baths comprising a balanced solution of salts such as Krebs' solution. After allowing for one hour equilibration of the tissue in the bath, the gram tension (G.T.) on one tissue is arbitrarily set at one. LTC4 (6 nanomolar concentration) is then added to the tissue bath. This induces a long, sustained contraction of the tissue that is measured on the strip chart recorder (the G.T. increases to about 2). After the LTC4 -induced contraction has plateaued and remains stable, increasing amounts of the test compound are added to the bath. If the compound is effective, a decrease in the G.T. (Δ G.T.) from the LTC4 -induced value is seen (e.g., from 2 to 1.5). The percent inhibition at each concentration is calculated according to the formula: [formula] Four replicate tissues are run.

5-lipoxygenase = biological target: T1, 5-lipoxygenase (Homo sapiens, UniProt P09917); test: Inhibition of 5-lipoxygenase (5-HETE formation from arachidonic acid, HPLC); assay type: biochemical; settings: arachidonic acid 1 mg/ml, pH 7.4, 6 minutes at 30° C.
T1 sequence (P09917 1-674): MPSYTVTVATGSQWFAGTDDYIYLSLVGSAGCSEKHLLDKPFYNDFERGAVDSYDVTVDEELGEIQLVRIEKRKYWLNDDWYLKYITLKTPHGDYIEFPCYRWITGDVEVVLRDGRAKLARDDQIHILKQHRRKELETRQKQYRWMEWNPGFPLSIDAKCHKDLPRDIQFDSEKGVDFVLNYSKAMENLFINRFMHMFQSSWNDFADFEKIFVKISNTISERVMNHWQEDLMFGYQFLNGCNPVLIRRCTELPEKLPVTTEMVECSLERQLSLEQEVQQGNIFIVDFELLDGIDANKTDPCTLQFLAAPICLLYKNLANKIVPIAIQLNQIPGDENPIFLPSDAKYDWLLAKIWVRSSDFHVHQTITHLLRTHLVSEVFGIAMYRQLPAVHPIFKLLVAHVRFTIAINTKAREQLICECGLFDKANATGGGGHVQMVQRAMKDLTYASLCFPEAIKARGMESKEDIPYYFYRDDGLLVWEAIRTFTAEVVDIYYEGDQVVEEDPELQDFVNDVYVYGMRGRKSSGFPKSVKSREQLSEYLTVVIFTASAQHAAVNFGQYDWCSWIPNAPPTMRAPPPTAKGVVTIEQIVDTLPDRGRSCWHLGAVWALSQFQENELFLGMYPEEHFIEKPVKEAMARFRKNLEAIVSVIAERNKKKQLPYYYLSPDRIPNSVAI
Procedure: Test for Inhibition of 5-Lipoxygenase
This test is based on the procedure of Arai et al., J. Med. Chem., Vol. 26, 72 (1983).
Arachidonic acid in the presence of the enzyme 5-lipoxygenase is converted to 5-hydroxy-eicosatetraenoic acid (5-HETE) through a 2-step process. To assess the activity of a test compound on 5-lipoxygenase activity, a specific concentration of the test compound is added to 1 mg/ml of arachidonic acid in the presence of the appropriate amount of 5-lipoxygenase in a solution of potassium phosphate buffer containing 1 mM CaCl2 at pH 7.4. The reaction is carried out for 6 minutes at 30° C. in a total volume of 500 μl. The reaction is stopped by addition of lM citric acid. The 5-HETE is extracted and quantitated using high performance liquid chromatography. The percent activity is calculated as follows: [formula]

## O=c1cc(-c2ccccc2)oc2cc(OCC(O)CN3CCN(c4ccccc4)CC3)ccc12 (stereo not shown) [Example 12, 7-[3-(N-phenylpiperazinyl)-2-hydroxypropoxy]flavone]
[1]
  activity in the rat anaphylaxis test: active
[2]
  solubility in the balanced salts solution: insoluble

## O=c1c(-c2ccccc2)c(-c2ccccc2)oc2cc(OCC(O)CNc3ccccc3)ccc12 (stereo not shown) [Example 19, 3-Phenyl-7-(3-anilino-2-hydroxypropoxy)flavone]
[1]; as hydrochloric acid salt
  activity in the Rat Anaphylaxis test: inactive
[1]; free base form
  activity in the Rat Anaphylaxis test: active

## O=c1cc(-c2ccccc2)oc2cc(OCC(O)CNCC(O)COc3ccccc3)ccc12 (stereo not shown) [Example 11, 7-[3-[3-phenoxy-2-(hydroxypropyl)amino]-2-hydroxypropoxy]flavone Hydrochloride]
[1]
  activity in the rat anaphylaxis test: active
[2]
  solubility in the balanced salts solution: insoluble

## COc1ccc(CCNCC(O)COc2ccc3c(=O)cc(-c4ccccc4)oc3c2)cc1OC (stereo not shown) [Example 1, 7-[3-[(3,4-dimethoxyphenethyl)amino]-2-hydroxypropoxy]flavone Maleate]
Leukotriene C4 (LTC4); final tissue bath concentration 1×10^-5 M
  inhibition at 10 µM: 94%
Leukotriene C4 (LTC4); final tissue bath concentration 1×10^-6 M
  inhibition at 1 µM: 52.3%
Leukotriene C4 (LTC4); final tissue bath concentration 5×10^-6 M
  inhibition at 5 µM: 89.8%

## Br.O=c1cc(-c2ccccc2)oc2cc(OCC(O)CNCCc3ccc(O)c(O)c3)ccc12 (stereo not shown) [Example 14, 7-[3-[(3,4-Dihydroxyphenethyl)amino]-2-hydroxypropoxy]flavone Hydrobromide]
[1]; rat, 100 mg/kg ip in 1% Clearjel, paw volume 90 minutes post antigenic challenge
  percent inhibition of edema: 63%
5-lipoxygenase
  IC50: ~90 nM

## O=c1c(-c2ccccc2)c(-c2ccccc2)oc2cc(OCC(O)CNCCc3ccccc3)ccc12 (stereo not shown) [Example 18, 3-Phenyl-7-(3-phenethylamino-2-hydroxypropoxy)flavone]
[1]
  activity in the rat anaphylaxis test: active
[2]
  solubility in the balanced salts solution: insoluble
